Assay: xn = mol fraction of the nth substance listed
Conditions: 101 kPa, Liquid

ClC(Cl)Cl [trichloromethane] + CCCCO
mass density [kg/m3]
Conditions	288.15 K	293.15 K	298.15 K	303.15 K	308.15 K	313.15 K
x2 = 0	1498.08	1488.64	1479.15	1469.61	1460.03	1450.41
x2 = 0.0493	1458.97	1449.82	1440.63	1431.4	1422.12	1412.82
x2 = 0.0994	1420.12	1411.28	1402.39	1393.45	1384.45	1375.41
x2 = 0.1499	1381.86	1373.34	1364.77	1356.15	1347.47	1338.76
x2 = 0.2003	1344.3	1336.11	1327.86	1319.57	1311.21	1302.8
x2 = 0.2476	1309.65	1301.76	1293.82	1285.82	1277.77	1269.66
x2 = 0.279	1286.97	1279.28	1271.53	1263.75	1255.9	1248.02
x2 = 0.3474	1238.34	1231.07	1223.75	1216.37	1208.94	1201.48
x2 = 0.4003	1201.44	1194.48	1187.48	1180.42	1173.31	1166.16
x2 = 0.461	1159.74	1153.14	1146.5	1139.81	1133.06	1126.29
x2 = 0.4993	1133.81	1127.43	1121	1114.53	1108	1101.42
x2 = 0.5517	1098.6	1092.6	1086.4	1080.3	1074	1067.8
x2 = 0.5989	1067.38	1061.55	1055.69	1049.78	1043.81	1037.8
x2 = 0.651	1033.23	1027.7	1022.12	1016.5	1010.82	1005.11
x2 = 0.7008	1001.03	995.76	990.45	985.097	979.698	974.26
x2 = 0.7485	970.42	965.404	960.349	955.255	950.115	944.94
x2 = 0.7987	938.452	933.697	928.907	924.082	919.208	914.297
x2 = 0.8495	906.492	901.999	897.472	892.91	888.303	883.67
x2 = 0.8953	877.854	873.588	869.292	864.961	860.59	856.188
x2 = 0.9475	845.53	841.51	837.462	833.386	829.272	825.138

c1ccccc1 [benzene] + CCCCO
mass density [kg/m3]
Conditions	288.15 K	293.15 K	298.15 K	303.15 K	308.15 K	313.15 K
x2 = 0	884.246	878.918	873.582	868.233	862.871	857.498
x2 = 0.0193	882.483	877.168	871.844	866.507	861.158	855.809
x2 = 0.0534	879.595	874.309	869.007	863.694	858.36	853.019
x2 = 0.1013	875.72	870.495	865.255	859.995	854.713	849.433
x2 = 0.1509	871.829	866.677	861.506	856.309	851.089	845.861
x2 = 0.2016	867.984	862.908	857.807	852.685	847.536	842.375
x2 = 0.2018	867.955	862.874	857.776	852.651	847.499	842.342
x2 = 0.25	864.382	859.372	854.344	849.285	844.201	839.11
x2 = 0.2997	860.741	855.806	850.849	845.866	840.854	835.83
x2 = 0.3532	856.936	852.081	847.201	842.294	837.357	832.4
x2 = 0.4019	853.504	848.721	843.914	839.08	834.214	829.324
x2 = 0.4525	850	845.3	840.574	835.817	831.029	826.217
x2 = 0.4998	846.738	842.111	837.46	832.778	828.059	823.32
x2 = 0.5532	843.129	838.594	834.03	829.436	824.804	820.157
x2 = 0.6004	839.985	835.529	831.042	826.525	821.974	817.402
x2 = 0.6493	836.693	832.317	827.91	823.473	819.001	814.449
x2 = 0.701	833.239	828.949	824.631	820.282	815.895	811.483
x2 = 0.7502	829.979	825.772	821.537	817.269	812.965	808.64
x2 = 0.7945	827.051	822.92	818.759	814.569	810.343	806.094
x2 = 0.8511	823.296	819.258	815.196	811.102	806.975	802.822
x2 = 0.8961	820.299	816.336	812.348	808.331	804.274	800.189
x2 = 0.951	816.663	812.791	808.897	804.977	801.025	797.051

Reference: the NIST ThermoML archive (doi:10.1007/s10765-008-0390-4)
